Measured values published in US8053197B2, “Methods for detecting and treating autoimmune disorders” (Oregon Health & Science University, priority 2004, dated 2011).

Experiments:
[1] = system: CD4+CD25− responder cells; experiment: Suppressive activity of CD4+CD25+ T cells from treated mice on CD4+CD25− responder cells (I50); format: in vivo, C57BL/6 mice
Protocol: FIG. 7 illustrates the suppressive activity of CD4+CD25+ T cells recovered from placebo, E2-treated and pregnant mice was measured by their ability to suppress the growth of CD4+CD25−responder cells. Varying numbers of sorted CD4+CD25+ Treg cells from placebo-treated, E2-treated, and pregnant mice were co-cultured in triplicate for 3 days without (0:1 ratio) or with a constant number (5×10^4) of CD4+CD25−responder cells and APC (10^5) from naïve donors, and 0.5 μg/ml anti-CD3 mAb. Responder cells were also cultured alone (1:0 ratio). Proliferation was monitored by uptake of [^3H]-thymidine (1 μCi/well) for the last 12 h of culture. Data are representative of three independent experiments. *I50 values (% CD4+CD25+ cells that could inhibit the proliferation of anti-CD3-activated CD4+CD25−responder cells by 50%) represent the average of two or more independent experiments.
Female C57BL/6 mice were pretreated with 17β-estradiol (E2) or placebo for 7 days prior to challenge with MOG-35-55 peptide/CFA/PM to induce EAE. At the peak of EAE in the placebo group (day 15 after induction), cells were harvested from both the placebo-treated mice (score=4.5-5) and E2-treated mice (score=0). Cell mixtures were combined within each treatment group. […]

Foxp3 = experiment: E2 induction of Foxp3 in vitro in purified CD4+CD25− T cells (real-time RT-PCR); format: cell-based, mice
Protocol: FIG. 1 is a graph illustrating real-time RT-PCR analysis of Foxp3 expression in vitro in purified (>99%) CD4+CD25− T cells. E2 in combination with TCR stimulation by anti-CD3 antibody for 24 hours induced Foxp3 mRNA approximately 3-fold over levels in untreated cells or in anti-CD3 stimulated cells in the absence of E2. Foxp3 levels are shown relative to the housekeeping gene L32. Error bars are standard deviation of triplicate samples. One representative result of three is shown.
The capacity of E2 to induce Foxp3 expression in vitro in purified (>99%) CD4+CD25− T cells was tested. […]
For real-time RT-PCR analysis, total RNA was prepared using the Total RNeasy kit (Qiagen, Germantown, Md.) and cDNA was prepared using random hexamer primers (Invitrogen, Grand Island, N.Y.). Foxp3 message expression was quantified using the ABI 7000 Real-Time PCR System (Applied Biosystems, Foster City, Calif.). Amplification was performed in a total volume of 25 μl for 40 cycles and products were detected using SYBR Green I dye (Molecular Probes, Eugene, Oreg.). Samples were run in triplicate and relative expression level was determined by normalization to L32 with results presented as relative expression (RE) units. […] FoxP3 was detected with rabbit-anti-FoxP3 antiserum and standard chemiluminescence. […]

Treg compartment = Treg compartment (CD25, Foxp3 mRNA, FoxP3 protein) in naïve mice treated with E2 for 14 days; format: in vivo, C57BL/6 mice
Protocol: Quadrant statistics noted are percent of live gate.
FIG. 5 is a graph illustrating real-time PCR analysis of Foxp3 mRNA in CD4+ cells from FIG. 4. Data are presented as Foxp3 relative to housekeeping gene L32. Error bars are standard deviation of triplicate samples.
Cells were pooled from 8-10 mice before sorting.
For E2 therapy, a 3 mm pellet containing 2.5 mg or 15 mg (as indicated) 17β-estradiol (Innovative Research of America, Sarasota, Fla.) was implanted s.c. (dorsally) 7 days prior to immunization (EAE) or 14 days prior to analysis of naïve mice. These pellets are designed to release their contents at a constant rate over 60 days. Control animals were implanted with pellets containing saline. Serum levels of E2 were monitored by RIA.
Single-cell suspensions were prepared from spleens and RBCs lysed. Non-immunized mice receiving E2 pellets were sacrificed 14 days after implantation, while immunized mice were sacrificed at the peak of EAE disease severity, approximately 17 days after induction. […]
For real-time RT-PCR analysis, total RNA was prepared using the Total RNeasy kit (Qiagen, Germantown, Md.) and cDNA was prepared using random hexamer primers (Invitrogen, Grand Island, N.Y.). Foxp3 message expression was quantified using the ABI 7000 Real-Time PCR System (Applied Biosystems, Foster City, Calif.). Amplification was performed in a total volume of 25 μl for 40 cycles and products were detected using SYBR Green I dye (Molecular Probes, Eugene, Oreg.). Samples were run in triplicate and relative expression level was determined by normalization to L32 with results presented as relative expression (RE) units. […] For analysis of FoxP3 protein, cells were washed in PBS then lysed and sonicated in lysis buffer {25 mM Tris pH 8.5, 2% lithium dodecyl sulfate, 1 mM EDTA, 10 mM sodium fluoride, 1 mM sodium orthovanadate, and 1× Complete protease inhibitors (Roche Diagnostics, Mannheim, Germany)} and quantified by BCA (Pierce, Rockford, Ill.). […] FoxP3 was detected with rabbit-anti-FoxP3 antiserum and standard chemiluminescence. […]

## C[C@]12CC[C@@H]3c4ccc(O)cc4CC[C@H]3[C@@H]1CC[C@@H]2O [E2, 17β-estradiol]
[1]; E2-protected mice challenged for EAE, day 15, control mice with EAE 30%
  I50 of Treg suppressive activity: 2.5%
[1]; Treg from E2-treated mice without EAE, naïve mice 22.4±[…], n=3 experiments
  average I50 value for CD4+CD25+ Treg cells: 14.7±0.3%
Foxp3
  fraction of CD25+ cells over TCR stimulation alone: increased
Foxp3; E2 in combination with anti-CD3 antibody for 24 hours, relative to L32
  Foxp3 mRNA induction over levels in untreated cells: approximately 3 fold
Treg compartment
  FoxP3 protein: increase
  Foxp3 mRNA in CD4+ cells: increase
  increase in the fraction of CD25+ cells among all CD4+ cells versus untreated mice: 43%
